Columns and labels:
[1] = target: T1, HBO1 (Homo sapiens, UniProt O95251); assay: isothermal titration calorimetry (supported by in vitro histone acetylation assay with purified HBO1); type: binding
T1 construct: gene KAT7; HBO1 (336-611), acyltransferase/catalytic domain, purified from E. coli

[2] = target: T1, HBO1; assay: isothermal titration calorimetry (supported by in vitro histone lactylation assay with purified HBO1); type: binding

T1 sequence (O95251 336-611): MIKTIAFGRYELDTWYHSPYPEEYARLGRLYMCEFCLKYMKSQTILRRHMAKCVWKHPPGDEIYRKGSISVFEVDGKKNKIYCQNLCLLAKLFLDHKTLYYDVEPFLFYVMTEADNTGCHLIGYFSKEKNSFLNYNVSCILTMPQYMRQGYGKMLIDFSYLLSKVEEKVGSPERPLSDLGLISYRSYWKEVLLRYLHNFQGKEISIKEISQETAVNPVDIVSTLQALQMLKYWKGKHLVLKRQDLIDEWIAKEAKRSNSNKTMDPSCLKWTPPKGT

Kd [1]	Kd [2]	SMILES
1460 nM	–	CC(=O)SCCNC(=O)CCNC(=O)[C@H](O)C(C)(C)COP(=O)(O)OP(=O)(O)OC[C@H]1O[C@@H](n2cnc3c(N)ncnc32)[C@H](O)[C@@H]1OP(=O)(O)O [acetyl-CoA]
–	520 nM	C[C@H](O)C(=O)SCCNC(=O)CCNC(=O)[C@H](O)C(C)(C)COP(=O)(O)OP(=O)(O)OC[C@H]1O[C@@H](n2cnc3c(N)ncnc32)[C@H](O)[C@@H]1OP(=O)(O)O [lactyl-CoA]

Source: paper PMC11053077, “HBO1 catalyzes lysine lactylation and mediates histone H3K9la to regulate gene transcription” (Nature Communications, 2024)
